For the first assay, the target named is T1, histamine H4 receptor (Homo sapiens, UniProt Q9H3N8).
T1 construct: expressed in transfected cells; host or cells: HEK293SFM cells (membrane preparation)
T1 sequence (Q9H3N8 whole entry): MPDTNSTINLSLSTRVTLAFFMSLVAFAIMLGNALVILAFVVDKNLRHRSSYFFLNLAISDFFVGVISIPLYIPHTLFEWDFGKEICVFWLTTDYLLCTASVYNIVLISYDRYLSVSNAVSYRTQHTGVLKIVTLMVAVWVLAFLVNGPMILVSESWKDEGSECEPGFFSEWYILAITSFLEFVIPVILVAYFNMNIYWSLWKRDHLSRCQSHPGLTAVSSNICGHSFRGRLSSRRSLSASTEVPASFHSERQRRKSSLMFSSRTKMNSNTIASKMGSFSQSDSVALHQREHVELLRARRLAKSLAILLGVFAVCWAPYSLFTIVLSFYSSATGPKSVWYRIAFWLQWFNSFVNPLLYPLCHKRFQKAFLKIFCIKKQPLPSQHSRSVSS
As to the kind of experiment: Inhibition of histamine H4 receptor (Table A1; H4 membrane binding assay).
Conditions: not given
The protocol:
Recombinant HEK293SFM cells expressing human H1, H2, H3, H4 or mouse H4 were harvested (Packard Filtermate Harvester) in ice-cold Tris-HCl, (50 mM, pH 7.5, Sigma) with protease inhibitors (Roche) and homogenized with a Polytron homogenizer. The homogenate was centrifuged for 5 minutes at 1000 g to remove nuclei and unbroken cells. The supernatant was centrifuged at 50000 g for 30 minutes, and the resulting pellet was re-suspended in ice-cold Tris-HCl (50 mM, pH 7.5). […] Nonspecific binding was determined by inclusion of 1000× unlabeled ligands. The bound radioactivity was separated by filtration through polyethyleneimine-treated GF/B filters (Perkin Elmer). The filters were washed eight times with ice-cold Tris-HCl (50 mM, pH 7.5), and radioactivity retained on the filters was measured by liquid scintillation counting. The binding data were evaluated with Prism. […]
One may read the inhibition as how much of the control response was suppressed. Regarding `CC1Cc2ccc(-c3cccc(C(=O)N(C)C)n3)cc2CN1c1cc(N2CCN(C)CC2)nc(N)n1` (single isomer, unassigned) [Example 76, 6-{2-[2-Amino-6-(4-methylpiperazin-1-yl)pyrimidin-4-yl]-3-methyl-1,2,3,4-tetrahydroisoquinolin-7-yl}-N,N-dimethylpyridine-2-carboxamide], the inhibition at 1 µM was found to be 66%. Still for that read-out and setting: the result for `CC1Cc2ccc(-c3ccn(CC#N)n3)cc2CN1c1cc(N2CCN(C)CC2)nc(N)n1` (single isomer, unassigned) [Example 82B, (3-{2-[2-Amino-6-(4-methylpiperazin-1-yl)pyrimidin-4-yl]-3-methyl-1,2,3,4-tetrahydroisoquinolin-7-yl}-1H-pyrazol-1-yl)acetonitrile] reads 66%; that for `CC1Cc2ccc(-c3ccn(CCC#N)n3)cc2CN1c1cc(N2CCN(C)CC2)nc(N)n1` (single isomer, unassigned) [Example 83B, 3-(3-{2-[2-Amino-6-(4-methylpiperazin-1-yl)pyrimidin-4-yl]-3-methyl-1,2,3,4-tetrahydroisoquinolin-7-yl}-1,1-pyrazol-1-yl)propanenitrile], 61%. Same read-out and setting: the result for `CC1Cc2ccc(-c3ccn(CCO)n3)cc2CN1c1cc(N2CCN(C)CC2)nc(N)n1` (single isomer, unassigned) [Example 84B, 2-(3-{2-[2-Amino-6-(4-methylpiperazin-1-yl)pyrimidin-4-yl]-3-methyl-1,2,3,4-tetrahydroisoquinolin-7-yl}-1H-pyrazol-1-yl)ethanol] reads 52%; that for `CNC(=O)c1cc(-c2ccc3c(c2)CN(c2cc(N4CCN(C)CC4)nc(N)n2)C(C)C3)cn1C` (single isomer, unassigned) [Example 87B, 4-{2-[2-Amino-6-(4-methylpiperazin-1-yl)pyrimidin-4-yl]-3-methyl-1,2,3,4-tetrahydroisoquinolin-7-yl}-N,1-dimethyl-1H-pyrrole-2-carboxamide], 69%.

The same assay, now with this note: histamine H4 receptor; "> a" = exceeds experiment limit.
What is called IC50 is the point on the concentration scale where inhibition reaches its midpoint. A low value points to inhibition by little substance. Take `CC1Cc2ccc(-c3ccnc(C(=O)N4CCN(C)CC4)c3)cc2CN1c1cc(N2CCN(C)CC2)nc(N)n1` (single isomer, unassigned) [Example 70, 4-[3-Methyl-7-{2-[(4-methylpiperazin-1-yl)carbonyl]pyridin-4-yl}-3,4-dihydroisoquinolin-2(1H)-yl]-6-(4-methylpiperazin-1-yl)pyrimidin-2-amine]: the IC50 was 0.086 µM. This lies in the double-digit nanomolar range. Same read-out and setting: next, `CCNC(=O)c1ccc(-c2ccc3c(c2)CN(c2cc(N4CCN(C)CC4)nc(N)n2)C(C)C3)nc1` (single isomer, unassigned) [Example 71, 6-{2-[2-Amino-6-(4-methylpiperazin-1-yl)pyrimidin-4-yl]-3-methyl-1,2,3,4-tetrahydroisoquinolin-7-yl}-N-ethylnicotinamide]: 0.153 µM. The same measure, in the same setting: the result for `CC1Cc2ccc(-c3ccc(C(=O)N(C)C)cn3)cc2CN1c1cc(N2CCN(C)CC2)nc(N)n1` (single isomer, unassigned) [Example 72, 6-{2-[2-Amino-6-(4-methylpiperazin-1-yl)pyrimidin-4-yl]-3-methyl-1,2,3,4-tetrahydroisoquinolin-7-yl}-N,N-dimethylnicotinamide] reads 0.269 µM. The same measure, in the same setting: the result for `CC1Cc2ccc(-c3ccc(C(=O)N4CC(O)C4)cn3)cc2CN1c1cc(N2CCN(C)CC2)nc(N)n1` (single isomer, unassigned) [Example 73, 1-[(6-{2-[2-Amino-6-(4-methylpiperazin-1-yl)pyrimidin-4-yl]-3-methyl-1,2,3,4-tetrahydroisoquinolin-7-yl}pyridin-3-yl)carbonyl]azetidin-3-ol] reads 0.195 µM; that for `CC1Cc2ccc(-c3cncc(C(=O)N(C)C)c3)cc2CN1c1cc(N2CCN(C)CC2)nc(N)n1` (single isomer, unassigned) [Example 74, 5-{2-[2-Amino-6-(4-methylpiperazin-1-yl)pyrimidin-4-yl]-3-methyl-1,2,3,4-tetrahydroisoquinolin-7-yl}-N,N-dimethylnicotinamide], 0.148 µM. On to `CC1Cc2ccc(-c3cncc(C(=O)N4CC(O)C4)c3)cc2CN1c1cc(N2CCN(C)CC2)nc(N)n1` (single isomer, unassigned) [Example 75, 1-[(5-{2-[2-Amino-6-(4-methylpiperazin-1-yl)pyrimidin-4-yl]-3-methyl-1,2,3,4-tetrahydroisoquinolin-7-yl}pyridin-3-yl)carbonyl]azetidin-3-ol], for which the IC50 amounted to 0.1 µM. Same read-out and setting: the result for `CCNC(=O)c1ncc(-c2ccc3c(c2)CN(c2cc(N4CCN(C)CC4)nc(N)n2)C(C)C3)cn1` (single isomer, unassigned) [Example 77, 5-{2-[2-Amino-6-(4-methylpiperazin-1-yl)pyrimidin-4-yl]-3-methyl-1,2,3,4-tetrahydroisoquinolin-7-yl}-N-ethylpyrimidine-2-carboxamide] reads 0.149 µM.

As to `CC1Cc2ccc(-c3cnc(C(=O)N4CC(O)C4)nc3)cc2CN1c1cc(N2CCN(C)CC2)nc(N)n1` (single isomer, unassigned) [Example 78, 1-[(5-{2-[2-Amino-6-(4-methylpiperazin-1-yl)pyrimidin-4-yl]-3-methyl-1,2,3,4-tetrahydroisoquinolin-7-yl}pyrimidin-2-yl)carbonyl]azetidin-3-ol], the IC50 is 0.135 µM. `CNC(=O)c1ccc(-c2ccc3c(c2)CN(c2cc(N4CCN(C)CC4)nc(N)n2)C(CO)C3)cn1` (single isomer, unassigned) [Example 81A, 5-[2-[2-amino-6-(4-methylpiperazin-1-yl)pyrimidin-4-yl]-3-(hydroxymethyl)-1,2,3,4-tetrahydroisoquinolin-7-yl]-N-methylpyridine-2-carboxamide] displayed an IC50 of 0.075 µM. On the same count and under the same terms, next, `CNC(=O)c1ccc(-c2ccc3c(c2)CN(c2cc(N4CCN(C)CC4)nc(N)n2)C(CO)C3)cn1` (single isomer, unassigned) [Example 81B, 5-[2-[2-amino-6-(4-methylpiperazin-1-yl)pyrimidin-4-yl]-3-(hydroxymethyl)-1,2,3,4-tetrahydroisoquinolin-7-yl]-N-methylpyridine-2-carboxamide]: 0.034 µM. On to `CC1Cc2ccc(-c3ccn(CC#N)n3)cc2CN1c1cc(N2CCN(C)CC2)nc(N)n1` (single isomer, unassigned) [Example 82A, (3-{2-[2-Amino-6-(4-methylpiperazin-1-yl)pyrimidin-4-yl]-3-methyl-1,2,3,4-tetrahydroisoquinolin-7-yl}-1H-pyrazol-1-yl)acetonitrile], for which the half-inhibitory concentration (IC50) stood at 0.022 µM. On the same count and under the same terms, the result for `CC1Cc2ccc(-c3ccn(CCC#N)n3)cc2CN1c1cc(N2CCN(C)CC2)nc(N)n1` (single isomer, unassigned) [Example 83A, 3-(3-{2-[2-Amino-6-(4-methylpiperazin-1-yl)pyrimidin-4-yl]-3-methyl-1,2,3,4-tetrahydroisoquinolin-7-yl}-1H-pyrazol-1-yl)propanenitrile] reads 0.033 µM.

In the case of `CC1Cc2ccc(-c3ccn(CCO)n3)cc2CN1c1cc(N2CCN(C)CC2)nc(N)n1` (single isomer, unassigned) [Example 84A, 2-(3-{2-[2-Amino-6-(4-methylpiperazin-1-yl)pyrimidin-4-yl]-3-methyl-1,2,3,4-tetrahydroisoquinolin-7-yl}-1H-pyrazol-1-yl)ethanol], the IC50 was found to be 0.03 µM. Still for that read-out and setting: the result for `CC1Cc2ccc(-c3ccn(C)n3)cc2CN1c1cc(N2CCN(C)CC2)nc(N)n1` (single isomer, unassigned) [Example 85A, 4-[3-Methyl-7-(1-methyl-1H-pyrazol-3-yl)-3,4-dihydroisoquinolin-2(1H)-yl]-6-(4-methylpiperazin-1-yl)pyrimidin-2-amine] reads 0.02 µM; that for `CC1Cc2ccc(-c3ccn(C)n3)cc2CN1c1cc(N2CCN(C)CC2)nc(N)n1` (single isomer, unassigned) [Example 85B, 4-[3-Methyl-7-(1-methyl-1H-pyrazol-3-yl)-3,4-dihydroisoquinolin-2(1H)-yl]-6-(4-methylpiperazin-1-yl)pyrimidin-2-amine], 0.104 µM; that for `CCn1ccc(-c2ccc3c(c2)CN(c2cc(N4CCN(C)CC4)nc(N)n2)C(C)C3)n1` (single isomer, unassigned) [Example 86A, 4-[7-(1-Ethyl-1H-pyrazol-3-yl)-3-methyl-3,4-dihydroisoquinolin-2(1H)-yl]-6-(4-methylpiperazin-1-yl)pyrimidin-2-amine], 0.04 µM. The same measure, in the same setting: next, `CCn1ccc(-c2ccc3c(c2)CN(c2cc(N4CCN(C)CC4)nc(N)n2)C(C)C3)n1` (single isomer, unassigned) [Example 86B, 4-[7-(1-Ethyl-1H-pyrazol-3-yl)-3-methyl-3,4-dihydroisoquinolin-2(1H)-yl]-6-(4-methylpiperazin-1-yl)pyrimidin-2-amine]: 0.231 µM; `CNC(=O)c1cc(-c2ccc3c(c2)CN(c2cc(N4CCN(C)CC4)nc(N)n2)C(C)C3)cn1C` (single isomer, unassigned) [Example 87A, 4-{2-[2-Amino-6-(4-methylpiperazin-1-yl)pyrimidin-4-yl]-3-methyl-1,2,3,4-tetrahydroisoquinolin-7-yl}-N,1-dimethyl-1H-pyrrole-2-carboxamide]: 0.026 µM. Same read-out and setting: next, `CCNC(=O)c1cc(-c2ccc3c(c2)CN(c2cc(N4CCN(C)CC4)nc(N)n2)C(C)C3)cn1C` (single isomer, unassigned) [Example 88A, 4-{2-[2-Amino-6-(4-methylpiperazin-1-yl)pyrimidin-4-yl]-3-methyl-1,2,3,4-tetrahydroisoquinolin-7-yl}-N-ethyl-1-methyl-1H-pyrrole-2-carboxamide]: 0.025 µM.

Source of the values: US20130244999A1, “Substituted Heterocyclic Compounds” (Incyte Corporation, priority 2008, published 2013).
